Article PMC8379256, “A xanthene derivative, DS20060511, attenuates glucose intolerance by inducing skeletal muscle-specific GLUT4 translocation in mice” (Communications Biology, 2021)
Values joined by “and” are separate entries in the source; they are usually repeats but may differ in a detail not shown here. Equal values may be shown once.

Tests used:
L6-GLUT4myc myotubes = test: GLUT4 translocation: cell surface GLUT4myc by anti-Myc antibody assay in L6-GLUT4myc myotubes; format: cell-based, rat
[1] = test system: 3T3-L1-GLUT4myc adipocytes; test: GLUT4 translocation: cell surface GLUT4myc by anti-Myc antibody assay in 3T3-L1-GLUT4myc adipocytes; format: cell-based; conditions: for Ratio: GLUT4 translocation normalized to vehicle; for A - background / A: Abs. (450 nm): GLUT4 translocation; for GLUT4 translocation (in words): differentiated 3T3-L1-GLUT4myc adipocytes, Fig. 1c
Description: The L6-GLUT4myc rat myoblast cell line was obtained from Dr. Amira Klip and Dr. Philip Bilan, through a license granted by The Hospital for Sick Children, 555 University Avenue, Toronto, Ontario, Canada M5G 1 × 8; or purchased from Kerafast, Boston, MA (ESK202)[43]. The 3T3-L1-GLUT4myc fibroblast cell line was provided by Dr. Tomoyuki Yuasa, Tokushima University[44]. L6-GLUT4myc myoblasts were grown in MEMα (32571036, Thermo Fisher Scientific, Waltham, MA) supplemented with 10% FBS and 1% antibiotics, and then induced to differentiate into myotubes in MEMα supplemented with 2% FBS and 1% antibiotics for 5–8 days. 3T3-L1-GLUT4myc fibroblasts were induced to differentiate into adipocytes as described previously,[45] with minor modifications. Briefly, cells were grown to confluence in growth medium: DMEM (10569010, Thermo Fisher Scientific) supplemented with 10% FBS and 1% antibiotics, and then induced to differentiate into adipocytes in growth medium supplemented with 1 μM dexamethasone, 2 μM rosiglitazone, 0.5 mM isobutylmethylxanthine, and 10 μg mL^−1 insulin for 2 days. The adipocytes were then cultured in growth medium supplemented with 10 μg mL^−1 insulin for a few days before being used for the experiments.
Cell surface GLUT4 levels in the L6-GLUT4myc myoblasts and myotubes were determined by antibody binding assay as described previously[43],[44], with minor modifications. Briefly, cells in a 96- or 24-well plate were starved in serum-free MEMα (0.1% BSA and 1% antibiotics) for 3 h and then treated with the indicated concentrations of DS20060511 and/or insulin for 30 min at 37 °C. After fixation with 4% paraformaldehyde, the cells were incubated with 1% glycine in PBS at 4 °C for 10 min, and blocked with 10% normal goat serum and 3% BSA in PBS at 4 °C for 30 min. The cells were then incubated with anti-c-Myc antibody (sc-40, 1:500) diluted with blocking buffer at 4 °C for 1 h, washed with cold PBS(+), incubated with HRP-conjugated anti-mouse IgG diluted with blocking buffer at 4 °C for 30 min, and then washed again. SuperSignal ELISA Pico Chemiluminescent Substrate (Thermo Fisher Scientific) was added and the luminescent signal was measured. To investigate GLUT4 translocation in the 3T3-L1-GLUT4myc adipocytes, the cells were prepared in a 24-well plate, and anti-c-Myc antibody (sc-789, 1:1000), HRP-conjugated anti-rabbit IgG and SIGMAFAST OPD regent (Sigma–Aldrich) were added for optical detection of the cell surface GLUT4myc levels. The GLUT4 translocation activity was normalized to that in the vehicle-treated group.

isolated skeletal muscle = test: 2-DG uptake in muscles isolated from NC-fed and HFD-fed mice; set-up: species or system mouse; conditions: for Raio: 2-DG uptake in isolated muscles; for Raio / 2DOG Trn / IC 2DOG: individual muscles; for 2DOG Trn / IC 2DOG: isolated muscles
Description: Fig. 8 Acute and chronic DS20060511 treatment improves glucose intolerance in HFD-fed and db/db mice. a Blood glucose and plasma insulin levels during an oral GTT in normal-chow (NC)- and high-fat diet (HFD)-fed mice (n = 5). Vehicle or DS20060511 (30 mg kg^−1) was given orally 15 min before the oral glucose administration (1.5 g kg^−1). Values shown are means ± SEM. *P < 0.05, **P < 0.01, ***P < 0.001 vs. the HFD vehicle by the t-test. b Effects of 10 μM DS20060511 and 100 nM insulin on 2-DG uptake in muscles isolated from NC-fed (n = 6) and HFD-fed (n = 5) mice. Values shown are means ± SEM. **P < 0.01 by one-way ANOVA followed by Tukey’s test. c, d Changes in the blood glucose levels and AUC on day 1 and day 28 during refeeding (n = 6) in db/db mice treated chronically with DS20060511 (10 mg kg^−1 day^−1). Values shown are means ± SEM. *P < 0.05, **P < 0.01, ***P < 0.001 vs. vehicle by the t-test. e Change of the HbA1c levels in the db/db (n = 6) mice at 4 weeks. Values shown are means ± SEM. *P < 0.05 vs. vehicle by the t-test.
C57BL/6 and db/db mice were purchased from CLEA Japan, Tokyo, Japan. GLUT4- knockout mice were generated at RIKEN BioResource Center, Tsukuba, Japan, according to a previously described method. eNOS-knockout mice were kindly provided by Dr. Masato Tsutsui[41],[42]. The mice were group-housed under controlled illumination (12:12 h light-dark cycle) and temperature (23 ± 2 °C) conditions and given free access to normal chow and water, unless otherwise specified. The HFD-fed obese mice were prepared by feeding C57BL/6 mice a HFD for at least 8 weeks from 6 weeks of age. […] Male mice were used for all the experiments in this study. The animal care and experimental procedures used in the study were approved by The University of Tokyo Animal Care Committee (Approval number: 27-3), and the study was carried out in accordance with the Animal Experimentation Guidelines of Daiichi Sankyo Co., Ltd (Approved number: 20000411).
The soleus or EDL muscle was removed from anesthetized mice (isoflurane anesthesia) that had been denied access to food overnight, and incubated with oxygenated (95% O2/5% CO2) Krebs-Henseleit Bicarbonate (KHB) buffer (118.1 mM NaCl, 4.7 mM KCl, 1.1 mM KH2PO4, 1.2 mM MgSO4, 2.5 mM CaCl2, and 25 mM NaHCO3, pH7.4) in the presence of 11.1 mM glucose at 37 °C. The muscle specimens were then treated with the indicated concentrations of the compounds in KHB buffer containing 11.1 mM glucose and 8 mM mannitol for 10 min at 37 °C. Thereafter, the muscles were rinsed with KHB buffer containing 8 mM mannitol and the compounds for 5 min at 37 °C. Lastly, the muscles were treated with the compounds in KHB buffer containing 1 mM 2-DG (with 0.3 μCi mL^−1 [^3H]-2-DG) and 8 mM mannitol (with 0.03 μCi mL^−1 [^14C]-mannitol) for 10 min at 37 °C. After the muscle specimens were washed, they were lysed with 1 N NaOH and neutralized with 1 N HCl. The ^14C- and ^3H-specific activities were counted with a liquid scintillation counter. The specific uptake of 2-DG was calculated by subtracting the nonspecific uptake of mannitol from the total 2-DG uptake. To investigate the effects of muscle contraction, muscle contraction was induced by electrical stimulation with 5 Hz (1 ms pulse duration, 100 V) for 10 min (SEN-5201, Nihon Koden, Tokyo, Japan).

[2] = HFD, DS20060511 10 μM plus Insulin 100 nM
[3] = HFD, DS20060511 0 μM, Insulin 100 nM
[4] = NC, DS20060511 0 μM, Insulin 100 nM

COc1ccc2c(C)c(C(=O)O)ccc2c1C1C2=C(CC(C)(C)CC2=O)OC2=C1C(=O)CC(C)(C)C2 [DS20060511]
A: Abs. (450 nm) (L6-GLUT4myc myotubes; DS20060511 0.1 μM, replicates 1-3): 0.190 (2×) and 0.196
Ratio ([1]; DS20060511 0.1 μM): 0.99 and 1.02 and 1.06
Ratio ([1]; DS20060511 1 μM): 0.93 and 1.02 and 0.98
Ratio ([1]; DS20060511 10 μM): 0.96 and 1.08 and 1.04
A - background ([1]; DS20060511 0.1 μM): 0.1225 and 0.1275 and 0.1195
A: Abs. (450 nm) ([1]; DS20060511 0.1 μM): 0.206 and 0.211 and 0.203
A - background ([1]; DS20060511 1 μM): 0.1225 and 0.1175 and 0.1115
A: Abs. (450 nm) ([1]; DS20060511 1 μM): 0.206 and 0.201 and 0.195
A - background ([1]; DS20060511 10 μM): 0.1305 and 0.1255 and 0.1155
A: Abs. (450 nm) ([1]; DS20060511 10 μM): 0.214 and 0.209 and 0.199
GLUT4 translocation (in words) [1]: almost no effect on GLUT4 translocation
Raio (isolated skeletal muscle; [2]): 2.30 and 2.20 and 2.00 and 1.46 and 1.88
suppression of insulin-induced 2-DG uptake in isolated skeletal muscle (isolated skeletal muscle; HFD-fed mice, 10 μM DS20060511, 100 nM insulin): completely restored
2DOG Trn (isolated skeletal muscle; HFD, DS20060511 10 μM plus Insulin 100 nM, incubation time 10 min): 45.7 µM/min and 43.8 µM/min and 39.8 µM/min and 37.4 µM/min
2DOG Trn (isolated skeletal muscle; [2]): 457 nmol/mL and 438 nmol/mL and 436 nmol/mL and 374 nmol/mL
IC 2DOG (isolated skeletal muscle; [2]): 292 nmol/g and 276 nmol/g and 268 nmol/g and 283 nmol/g and 257 nmol/g

Insulin: Insulin (Humulin, Eli Lilly) in the in vivo experiments; Insulin solution human (I9278, Sigma–Aldrich) in the in vitro experiments
A: Abs. (450 nm) (L6-GLUT4myc myotubes; Insulin 100 nM): 0.287 and 0.285 and 0.286
Ratio ([1]; Insulin 1 nM): 1.07 and 1.09 and 1.12
Ratio ([1]; Insulin 10 nM): 1.31 and 1.33 and 1.41
Ratio ([1]; Insulin 100 nM): 1.41 and 1.46 and 1.56
A - background ([1]; Insulin 1 nM): 0.1315 and 0.1345 and 0.1295
A: Abs. (450 nm) ([1]; Insulin 1 nM): 0.215 and 0.218 and 0.213
A - background ([1]; Insulin 10 nM): 0.1605 and 0.1705 and 0.1575
A: Abs. (450 nm) ([1]; Insulin 10 nM): 0.244 and 0.254 and 0.241
A - background ([1]; Insulin 100 nM): 0.1755 and 0.1885 and 0.1705
A: Abs. (450 nm) ([1]; Insulin 100 nM): 0.259 and 0.272 and 0.254
GLUT4 translocation (in words) [1]: increased GLUT4 translocation
Raio (isolated skeletal muscle; [3]): 1.28 and 1.46 and 1.65 and 1.16 and 0.85
Raio (isolated skeletal muscle; [4]): 2.15 and 2.48 and 1.82 and 1.55 and 1.68 and 2.28
2DOG Trn (isolated skeletal muscle; HFD, DS20060511 0 μM, Insulin 100 nM, incubation time 10 min): 25.5 µM/min and 29.1 µM/min and 32.9 µM/min and 23.1 µM/min and 14.4 µM/min
2DOG Trn (isolated skeletal muscle; [3]): 255 nmol/mL and 291 nmol/mL and 329 nmol/mL and 324 nmol/mL and 259 nmol/mL
IC 2DOG (isolated skeletal muscle; [3]): 163 nmol/g and 186 nmol/g and 216 nmol/g and 214 nmol/g and 174 nmol/g
2DOG Trn (isolated skeletal muscle; NC, DS20060511 0 μM, Insulin 100 nM, incubation time 10 min): 27.4 µM/min and 29.7 µM/min and 40.3 µM/min and 38.9 µM/min and 44.9 µM/min and 32.9 µM/min
2DOG Trn (isolated skeletal muscle; [4]): 274 nmol/mL and 297 nmol/mL and 403 nmol/mL and 389 nmol/mL and 449 nmol/mL and 329 nmol/mL
IC 2DOG (isolated skeletal muscle; [4]): 192 nmol/g and 210 nmol/g and 264 nmol/g and 259 nmol/g and 303 nmol/g and 223 nmol/g
